Test results taken from the supplement of paper PMC10307832.

How the values were obtained:
Assay in all cases: relative viability (nuclei count vs DMSO), 5 days (fraction); higher = more cells survive
CUDC-101 + Palbociclib = compound: C#Cc1cccc(Nc2ncnc3cc(OC)c(OCCCCCCC(=O)NO)cc23)c1 [CUDC-101] + CC(=O)c1c(C)c2cnc(Nc3ccc(N4CCNCC4)cn3)nc2n(C2CCCC2)c1=O [Palbociclib] (partner 0.5 µM)
How it was run: (§1)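 Lung cancer cell lines were seeded in 1536-well plates and dosed by pin tool the next day, with either a single drug or a fixed anchor-drug dose combined with five library-drug doses (not always all listed) spaced in √10 steps. Five days later, one step fixed the cells and stained their nuclei (final 0.05% Triton X-100, 1% formaldehyde, 1 ug/ml Hoechst), and nuclei were counted on 4× images. Relative viability is the nuclei count in treated wells divided by the count in vehicle wells, and each value is the median of duplicate plates.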

Vandetanib + Foretinib = compound: COc1cc2/c(=N/c3ccc(Br)cc3F)nc[nH]c2cc1OCC1CCN(C)CC1 [Vandetanib] + COc1cc2c(Oc3ccc(NC(=O)C4(C(=O)Nc5ccc(F)cc5)CC4)cc3F)ccnc2cc1OCCCN1CCOCC1 [Foretinib] (partner 0.25 µM)
How it was run: as §1

Vandetanib + Pictilisib = compound: COc1cc2/c(=N/c3ccc(Br)cc3F)nc[nH]c2cc1OCC1CCN(C)CC1 [Vandetanib] + CS(=O)(=O)N1CCN(Cc2cc3nc(-c4cccc5[nH]ncc45)nc(N4CCOCC4)c3s2)CC1 [Pictilisib] (partner 1 µM)
How it was run: as §1

Vandetanib + Tozasertib = compound: COc1cc2/c(=N/c3ccc(Br)cc3F)nc[nH]c2cc1OCC1CCN(C)CC1 [Vandetanib] + Cc1cc(Nc2cc(N3CCN(C)CC3)nc(Sc3ccc(NC(=O)C4CC4)cc3)n2)n[nH]1 [Tozasertib] (partner 0.1 µM)
How it was run: as §1

Cell Line | relative viability (CUDC-101 + Palbociclib; first compound 0.01 µM) | relative viability (CUDC-101 + Palbociclib; first compound 0.03162 µM) | relative viability (CUDC-101 + Palbociclib; first compound 0.1 µM) | relative viability (CUDC-101 + Palbociclib; first compound 0.3162 µM) | relative viability (CUDC-101 + Palbociclib; first compound 1 µM) | relative viability (Vandetanib + Foretinib; first compound 0.02 µM) | relative viability (Vandetanib + Foretinib; first compound 0.06325 µM) | relative viability (Vandetanib + Foretinib; first compound 0.2 µM) | relative viability (Vandetanib + Foretinib; first compound 0.6325 µM) | relative viability (Vandetanib + Foretinib; first compound 2 µM) | relative viability (Vandetanib + Pictilisib; first compound 0.02 µM) | relative viability (Vandetanib + Pictilisib; first compound 0.06325 µM) | relative viability (Vandetanib + Pictilisib; first compound 0.6325 µM) | relative viability (Vandetanib + Pictilisib; first compound 2 µM) | relative viability (Vandetanib + Tozasertib; first compound 0.02 µM) | relative viability (Vandetanib + Tozasertib; first compound 0.06325 µM) | relative viability (Vandetanib + Tozasertib; first compound 0.2 µM) | relative viability (Vandetanib + Tozasertib; first compound 0.6325 µM) | relative viability (Vandetanib + Tozasertib; first compound 2 µM) | relative viability (Vandetanib + Pictilisib; first compound 0.2 µM)
NCI-H2228 | 0.891 | 1.09 | 0.874 | 0.805 | 0.664 | 0.92 | 0.625 | 0.167 | 0.803 | 0.822 | 0.383 | 0.402 | 0.399 | 0.297 | 0.263 | 0.304 | 0.124 | 0.219 | 0.214 | –
NCI-H2347 | 0.469 | 0.431 | 0.429 | 0.435 | 0.418 | 1.01 | – | 0.789 | 1.02 | 0.553 | 0.849 | 0.601 | 0.462 | 0.788 | 0.607 | – | 0.553 | 0.563 | 0.674 | 0.571
NCI-H2405 | 0.523 | 0.513 | 0.585 | 0.584 | 0.506 | 1.01 | 0.81 | 1.08 | 1.07 | 0.99 | 0.535 | 0.264 | 0.45 | 0.222 | 0.754 | 0.716 | 0.738 | 0.685 | 0.714 | 0.44
NCI-H3122 | 0.206 | 0.214 | 0.187 | 0.177 | 0.175 | 0.984 | 0.972 | 0.888 | 0.944 | 0.94 | 0.668 | 0.603 | 0.61 | 0.601 | 0.522 | 0.36 | 0.372 | 0.399 | 0.4 | 0.58
